Values quoted from earlier work in EP0918795B1, “ANTIANGIOGENIC DRUG TO TREAT CANCER, ARTHRITIS AND RETINOPATHY” (Abbott Laboratories, priority 1997, dated 2004).
No end group written: not given here.

What was measured:
[1] = tested on: rat cornea
[2] = tested on: cultured endothelial cells; conditions: inhibition of the migration of cultured endothelial cells

SPWSSASVTAGDGVITRIR [MalII, 19-mer synthetic peptide mimicking properdin-like repeat region 1 of TSP1]
neovascularization in vivo in the rat cornea [1]: blocked neovascularization | ED50 [2]: about 1 µM
